Reference: patent US20120225862A1, “HETEROARYL BENZAMIDES, COMPOSITIONS AND METHODS OF USE” (AUCKLAND UNIVSERVICES LIMITED, priority 2009, published 2012)

Experiments:
MKK4 = biological target: T1, MKK4 (Mus musculus, UniProt P47809); test: In vitro kinase activity (Millipore KinaseProfiler): MKK4; assay type: biochemical; conditions: no head or unit printed
T1 construct: purchased Millipore (KinaseProfiler service)
Experimental: (§1) All cells were grown in DMEM+10% FCS. ACHN and ACHN shVHL were a kind gift from George V. Thomas (UCLA). HIF overexpressing clones were described previously. Transfection of RNA oligos were performed with DnarmaFECT Reagent 1 (Dharmcon), according to manufacturer's directions. ON-TARGETplus SMART pools against HIF-1β/ARNT were purchased from Dharmacon. Glut1 was detected with anti-GLUT1 antibody from NeoMarkers/LabVision/Fisher. Pyruvate/lactate levels and hexokinase activity were both measured by fluorometric assay (BioVision and Sigma-Aldrich, respectively). ATP levels were measured by bioluminescence assay (ATP Determination Kit from Molecular Probes/Invitrogen). In vitro kinase activities were performed by Millipore KinaseProfiler. Affi-Gel 10 (BioRad) activated affinity media was coupled to analogs to generate immobilized affinity linkers.
(§2) We next wanted to investigate the differential glucose uptake between RCCs with and without VHL treated with compound 47 that subsequently lead to the selective death of VHL-deficient cells. We first examined the message levels of the two main glucose transporters, GLUT1 and GLUT2 by quantitative real-time PCR. GLUT1 is an inducible, high-affinity glucose transporter, while GLUT2 is the glucose transporter responsible for basal glucose uptake. […] Cells deficient in VHL had very low levels of GLUT2 that could barely be detected (FIG. 3J). […]

RCC4 = test: Lactate production (glycolysis), RCC4; assay type: cell-based; conditions: Homo sapiens; RCC4, 5 μM, compared to control-treated cells; read-out: inhibition of lactate production in VHL-deficient cells
Experimental: as §1
As the central mediator of oxygen homeostasis, HIF plays an important role in the cellular adaptation to low oxygen conditions through the regulation of genes involved in metabolism and energy production. Inactivation of VHL results in an increase in the half-life of HIF protein. […] To examine whether this compound alters the rate of glycolysis in VHL-deficient cells, we measured the intracellular production of lactate, which is rapidly converted from pyruvate, the end-product of glycolysis. […]

AMPK = test: In vitro kinase activity (Millipore KinaseProfiler): AMPK; assay type: biochemical; conditions: no head or unit printed
Experimental: as §1, §2

GSK3α = biological target: T2, GSK3α (Homo sapiens, UniProt P49840); test: In vitro kinase activity (Millipore KinaseProfiler): GSK3α; assay type: biochemical; conditions: no head or unit printed
T2 construct: purchased Millipore (KinaseProfiler service)
T2 sequence (P49840 whole entry, species assumed): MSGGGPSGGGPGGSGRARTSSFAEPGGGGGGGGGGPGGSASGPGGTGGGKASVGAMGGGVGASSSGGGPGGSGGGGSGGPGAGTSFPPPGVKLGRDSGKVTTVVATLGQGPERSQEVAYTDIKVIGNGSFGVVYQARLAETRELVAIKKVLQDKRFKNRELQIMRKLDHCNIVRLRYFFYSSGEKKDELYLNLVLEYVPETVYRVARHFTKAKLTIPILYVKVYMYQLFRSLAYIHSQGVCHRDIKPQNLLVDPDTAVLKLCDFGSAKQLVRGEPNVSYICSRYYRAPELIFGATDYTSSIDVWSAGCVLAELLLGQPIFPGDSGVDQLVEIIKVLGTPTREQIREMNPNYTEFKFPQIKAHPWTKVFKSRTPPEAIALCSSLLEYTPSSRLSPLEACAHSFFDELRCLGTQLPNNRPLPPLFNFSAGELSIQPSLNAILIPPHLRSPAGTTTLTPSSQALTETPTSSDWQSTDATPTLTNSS
Experimental: as §1, §2

DYRK2 = biological target: T3, DYRK2 (Homo sapiens, UniProt Q92630); test: In vitro kinase activity (Millipore KinaseProfiler): DYRK2; assay type: biochemical; conditions: no head or unit printed
T3 construct: purchased Millipore (KinaseProfiler service)
T3 sequence (Q92630 whole entry, species assumed): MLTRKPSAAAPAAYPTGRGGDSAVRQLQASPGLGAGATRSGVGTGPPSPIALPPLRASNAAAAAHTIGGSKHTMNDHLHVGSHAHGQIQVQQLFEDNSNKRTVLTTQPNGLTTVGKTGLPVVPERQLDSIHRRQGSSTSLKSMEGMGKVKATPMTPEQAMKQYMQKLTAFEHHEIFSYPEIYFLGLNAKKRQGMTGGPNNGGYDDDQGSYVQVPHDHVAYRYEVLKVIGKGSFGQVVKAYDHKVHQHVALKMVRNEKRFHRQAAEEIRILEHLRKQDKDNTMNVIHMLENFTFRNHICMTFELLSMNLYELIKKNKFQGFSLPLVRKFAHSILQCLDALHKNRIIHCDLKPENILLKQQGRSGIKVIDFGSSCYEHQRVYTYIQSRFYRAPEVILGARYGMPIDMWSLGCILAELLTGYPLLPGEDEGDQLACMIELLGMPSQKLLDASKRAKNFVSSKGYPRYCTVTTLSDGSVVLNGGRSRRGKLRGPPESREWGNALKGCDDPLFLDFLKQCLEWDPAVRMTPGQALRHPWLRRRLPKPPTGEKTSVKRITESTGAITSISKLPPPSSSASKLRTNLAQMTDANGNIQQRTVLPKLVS
Experimental: as §1, §2

RCC4 and RCC4/VHL cells = test: Apoptosis (DAPI nuclear condensation, Annexin V / propidium iodide FACS); assay type: cell-based, human
Experimental: (A) Clonogenic survival of RCC4 and RCC4/VHL treated with […] (5 μM)(*p<0.05). All error bars represent the standard error of the mean. […] RCC4 and RCC4/VHL cells were treated with increasing concentrations of compound 47 (1.25, 2.5 and 5 μM), a negative control (DMSO) and a positive control (4-(pyridin-4-yl)-N-(m-tolyl)thiazol-2-amine). Cells were lysed and probed for LC3, a marker of autophagy, or α-tubulin (loading control). […] RCC4 and RCC4/VHL cells were treated with vehicle, increasing concentrations of compound 47, and camptothecin. Cells were stained with DAPI and nuclear condensation was examined by fluorescence microscopy. (D) RCC4 cells were treated with compound 47 (5 μM) for the indicated time and stained with Annexin V and propidium iodide and subjected to FACS analysis. […] RCC4 and RCC4/VHL cells were subjected to increasing concentrations of compound 47 (1.25, 2.5, and 5 μM), a negative control (DMSO), and a positive control (doxorubicin). Cells were lysed and subjected to Western blot with the indicated antibodies.
However, RCC cells without VHL undergo a necrotic cell death in response to compound 47 as measured by the ability of the cells to exclude trypan blue, an indicator of cell membrane integrity.

ACHN shVHL = test: Clonogenic survival, ACHN with shRNA to VHL; assay type: cell-based, human; conditions: FIG. 2E
hexokinase [1] = test: Hexokinase activity in whole cell lysates, RCC4; assay type: cell-based, human; conditions: 5 μM
Experimental: as §1
(§3) We then examined whether this decrease in glycolysis in response to compound 47 was due to a decrease in glucose uptake or whether compound 47 inhibited a particular glycolytic enzyme. To test this, we measured glucose uptake using 2-deoxy-D-[^3H] glucose, a non-hydrolyzable, radioactive glucose analog, following two days of treatment with compound 47. […] RCC4/VHL cells had lower baseline levels of glucose uptake compared to RCC4 cells and were unaffected by treatment with compound 47. […]

Axl = biological target: T4, Axl (Homo sapiens, UniProt P30530); test: In vitro kinase activity (Millipore KinaseProfiler): Axl; assay type: biochemical; conditions: no head or unit printed
T4 construct: purchased Millipore (KinaseProfiler service)
T4 sequence (P30530 26-894, species assumed): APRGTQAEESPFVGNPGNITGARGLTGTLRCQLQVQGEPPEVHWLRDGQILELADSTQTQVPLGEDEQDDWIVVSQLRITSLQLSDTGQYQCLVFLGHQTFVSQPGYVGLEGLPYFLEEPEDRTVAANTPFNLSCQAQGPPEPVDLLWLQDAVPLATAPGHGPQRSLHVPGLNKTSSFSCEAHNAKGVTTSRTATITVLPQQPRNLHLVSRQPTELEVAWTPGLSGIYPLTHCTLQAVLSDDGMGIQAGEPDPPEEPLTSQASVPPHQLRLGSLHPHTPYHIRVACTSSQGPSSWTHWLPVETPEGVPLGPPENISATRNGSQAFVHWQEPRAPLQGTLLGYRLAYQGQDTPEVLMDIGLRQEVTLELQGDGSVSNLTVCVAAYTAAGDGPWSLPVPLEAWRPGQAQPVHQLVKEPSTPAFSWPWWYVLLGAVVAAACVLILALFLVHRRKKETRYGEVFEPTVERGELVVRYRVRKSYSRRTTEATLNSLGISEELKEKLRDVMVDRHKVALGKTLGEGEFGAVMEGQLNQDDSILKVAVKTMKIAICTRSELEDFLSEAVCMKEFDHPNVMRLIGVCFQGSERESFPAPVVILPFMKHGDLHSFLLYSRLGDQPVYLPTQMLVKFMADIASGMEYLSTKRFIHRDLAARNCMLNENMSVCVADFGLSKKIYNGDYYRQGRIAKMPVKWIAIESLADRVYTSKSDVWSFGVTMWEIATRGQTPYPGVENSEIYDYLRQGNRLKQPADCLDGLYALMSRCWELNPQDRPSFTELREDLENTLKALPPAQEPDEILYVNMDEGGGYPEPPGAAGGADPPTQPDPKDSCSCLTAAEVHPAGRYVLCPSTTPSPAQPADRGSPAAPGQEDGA
Experimental: as §1, §2

hexokinase [2] = test: Hexokinase activity in whole cell lysates, RCC4/VHL; assay type: cell-based, human; conditions: 5 μM
Experimental: as §1, §3

Met = biological target: T5, Met (Homo sapiens, UniProt P08581); test: In vitro kinase activity (Millipore KinaseProfiler): Met; assay type: biochemical; conditions: no head or unit printed
T5 construct: purchased Millipore (KinaseProfiler service)
T5 sequence (P08581 25-1390): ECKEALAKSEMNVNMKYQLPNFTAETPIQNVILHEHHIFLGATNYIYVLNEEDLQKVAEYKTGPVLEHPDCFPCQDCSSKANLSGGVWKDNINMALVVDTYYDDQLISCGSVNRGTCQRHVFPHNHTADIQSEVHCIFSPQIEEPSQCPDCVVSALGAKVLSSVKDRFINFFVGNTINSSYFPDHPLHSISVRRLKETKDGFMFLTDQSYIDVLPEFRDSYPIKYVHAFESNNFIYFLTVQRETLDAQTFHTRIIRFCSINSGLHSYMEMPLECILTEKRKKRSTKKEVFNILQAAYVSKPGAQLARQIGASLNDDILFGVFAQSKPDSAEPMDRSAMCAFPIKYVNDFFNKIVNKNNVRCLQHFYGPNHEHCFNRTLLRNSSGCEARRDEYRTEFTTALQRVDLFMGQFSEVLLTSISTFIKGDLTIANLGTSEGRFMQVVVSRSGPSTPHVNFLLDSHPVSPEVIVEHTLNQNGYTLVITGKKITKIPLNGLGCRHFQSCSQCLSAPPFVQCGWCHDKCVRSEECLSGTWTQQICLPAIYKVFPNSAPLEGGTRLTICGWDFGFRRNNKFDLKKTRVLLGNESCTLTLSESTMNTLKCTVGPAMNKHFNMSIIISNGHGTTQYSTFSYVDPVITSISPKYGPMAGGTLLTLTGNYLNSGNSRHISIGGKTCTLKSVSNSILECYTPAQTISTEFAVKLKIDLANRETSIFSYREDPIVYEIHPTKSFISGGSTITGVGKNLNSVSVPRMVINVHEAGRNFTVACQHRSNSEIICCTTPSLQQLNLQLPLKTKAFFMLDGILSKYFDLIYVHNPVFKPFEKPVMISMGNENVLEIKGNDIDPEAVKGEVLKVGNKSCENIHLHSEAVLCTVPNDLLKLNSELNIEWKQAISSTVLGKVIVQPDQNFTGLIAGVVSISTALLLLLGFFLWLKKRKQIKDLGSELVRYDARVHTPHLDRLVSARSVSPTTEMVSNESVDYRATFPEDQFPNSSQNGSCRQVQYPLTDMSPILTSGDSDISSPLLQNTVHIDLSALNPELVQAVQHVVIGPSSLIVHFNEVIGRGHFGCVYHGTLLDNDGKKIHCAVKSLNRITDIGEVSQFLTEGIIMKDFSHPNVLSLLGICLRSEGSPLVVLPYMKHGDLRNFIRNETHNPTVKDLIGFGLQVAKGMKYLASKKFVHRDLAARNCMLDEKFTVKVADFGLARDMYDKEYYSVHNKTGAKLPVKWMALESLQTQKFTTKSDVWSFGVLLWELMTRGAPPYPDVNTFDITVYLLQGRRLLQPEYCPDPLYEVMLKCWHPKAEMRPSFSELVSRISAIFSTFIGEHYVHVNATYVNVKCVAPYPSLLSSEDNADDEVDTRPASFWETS
Experimental: as §1, §2

T1 sequence (P47809 2-397 limits assumed): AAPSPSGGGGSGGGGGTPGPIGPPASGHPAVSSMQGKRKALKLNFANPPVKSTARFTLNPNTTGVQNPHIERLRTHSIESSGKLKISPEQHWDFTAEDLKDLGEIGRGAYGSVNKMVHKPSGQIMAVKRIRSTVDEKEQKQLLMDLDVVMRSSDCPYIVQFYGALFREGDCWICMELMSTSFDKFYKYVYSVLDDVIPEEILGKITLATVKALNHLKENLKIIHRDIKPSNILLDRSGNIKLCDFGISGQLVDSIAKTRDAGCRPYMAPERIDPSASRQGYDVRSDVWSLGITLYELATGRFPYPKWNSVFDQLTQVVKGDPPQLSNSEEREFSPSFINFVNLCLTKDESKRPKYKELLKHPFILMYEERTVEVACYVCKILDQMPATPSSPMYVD

SMILES: CC(C)(C)c1ccc(S(=O)(=O)NCc2ccc(C(=O)Nc3cccnc3)cc2)cc1 [Example 38, 4-((4-tert-Butylphenylsulfonamido)methyl)-N-(pyridin-3-yl)benzamide]
- MKK4 kinase activity (MKK4): 128
- inhibition at 5 µM (RCC4): ~60%
- AMPK kinase activity (AMPK): 92%
- GSK3α kinase activity (GSK3α): 134
- DYRK2 kinase activity (DYRK2): 94%
- nuclear condensation (apoptosis) (RCC4 and RCC4/VHL cells; DAPI, RCC4 and RCC4/VHL, FIG. 7C): no nuclear condensation
- propidium iodide or annexin V staining (apoptosis) (RCC4 and RCC4/VHL cells; RCC4, 5 μM, FACS, FIG. 7D): nor an increase in either propidium iodide or annexin V staining
- sensitivity of ACHN cells with VHL silenced by shRNA (clonogenic survival) (ACHN shVHL): sensitive
- hexokinase activity in RCC4 (hexokinase [1]): inhibited by compound 47 only after three days of treatment
- Axl kinase activity (Axl): 87
- hexokinase activity in RCC4/VHL (hexokinase [2]): unchanged
- Met kinase activity (Met): 105
